According to patent publication US20220265656A1, “COMBINATION THERAPIES WITH IRE1 SMALL MOLECULE INHIBITORS” (Cornell University, priority 2019, published 2022):
pEC50, pIC50: −log10 of the molar value. Structures can show the parent of a compound that is named as a salt.

How the values were obtained:
IRE1a [1] = target: T1, IRE1a (Homo sapiens, UniProt O75460); experiment: IRE1a Endoribonuclease Nanoluciferase Assay in 293T cells; type: cell-based; parameters: endogenous in cells; host or cells: 293T cells; details: XBP1 luciferase reporter in 293T cells, ER stressor
T1 sequence (O75460 19-977): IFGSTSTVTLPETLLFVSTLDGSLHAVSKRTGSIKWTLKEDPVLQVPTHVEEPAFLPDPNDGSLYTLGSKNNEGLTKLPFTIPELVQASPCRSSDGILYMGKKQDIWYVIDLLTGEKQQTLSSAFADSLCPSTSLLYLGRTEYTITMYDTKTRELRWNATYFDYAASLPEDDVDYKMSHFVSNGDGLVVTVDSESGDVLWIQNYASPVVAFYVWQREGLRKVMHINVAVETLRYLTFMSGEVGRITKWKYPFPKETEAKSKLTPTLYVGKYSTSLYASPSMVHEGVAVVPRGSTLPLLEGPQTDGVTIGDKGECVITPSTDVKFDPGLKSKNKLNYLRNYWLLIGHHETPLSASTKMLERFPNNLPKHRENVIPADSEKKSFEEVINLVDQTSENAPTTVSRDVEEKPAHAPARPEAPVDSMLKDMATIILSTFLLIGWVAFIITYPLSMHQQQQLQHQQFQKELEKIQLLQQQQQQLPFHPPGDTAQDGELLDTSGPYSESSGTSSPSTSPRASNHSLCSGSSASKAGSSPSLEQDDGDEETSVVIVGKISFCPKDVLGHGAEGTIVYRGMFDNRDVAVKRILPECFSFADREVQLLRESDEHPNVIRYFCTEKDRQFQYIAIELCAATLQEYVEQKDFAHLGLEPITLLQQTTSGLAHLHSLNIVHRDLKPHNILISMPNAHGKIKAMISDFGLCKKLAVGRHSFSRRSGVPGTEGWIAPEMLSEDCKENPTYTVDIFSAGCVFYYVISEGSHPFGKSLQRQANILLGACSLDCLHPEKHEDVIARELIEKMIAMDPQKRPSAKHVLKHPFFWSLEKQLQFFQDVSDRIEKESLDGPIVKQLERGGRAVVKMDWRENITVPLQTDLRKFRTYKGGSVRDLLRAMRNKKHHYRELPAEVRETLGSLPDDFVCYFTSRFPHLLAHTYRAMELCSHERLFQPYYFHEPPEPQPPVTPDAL
Protocol: Compounds disclosed herein were assessed for disruption of IRE1 signaling using a IRE1a Endoribonuclease Nanoluciferase Assay. Briefly, 2.5×10^6 293T cells were seeded in a 10 cm^2 tissue culture plate. About 24 hours later, the cells were transfected with Effectene. In a 15 mL tube, the following was added: 2 ug XBP1 luciferase reporter plasmid (PGK-Luc2-P2A-XBP1u-Nanoluciferase-PEST); 300 ul EC buffer; and 16 ul Enhancer, followed by incubation at room temp for 5 minutes. Next, 60 ul Effectene (Qiagen 301427) was added, followed by incubation at room temperature for 10 minutes, 2.6 mL cDMEM media was added. Old media was aspirated from the cells, followed by addition of 7 mL fresh media. Full transfection mixture was added dropwise to cells. Cells were incubated for 6 hours, followed by trypsinization, centrifugation and resuspension in 11 mL fresh cDMEM media, 100 uL of cells were plated per a well in a 96 well plate. A day later, ER stressors of choice +/−inhibitors were added. To harvest, media was aspirated from cells completely, then 50 uL 1× passive lysis buffer (Promega: E1941) was added per well and put on shaker (300 rpm) for 30 minutes at room temperature. Cells were centrifuged, and 15 uL sample per well was added to a new, opaque white 384 well plate (Corning 3570), 15 uL OneGlo (nanoluciferase kit, Promega N1630) was added. Plates were spun down, placed on shaker (300 rpm) for 10 minutes. Plates were read on luminometer, 1000 ms integration time per well, 15 uL Stop and Glo (nanoluciferase kit) was added. Plates were spun down, placed on shaker (300 rpm) for 10 minutes. Plates were read on luminometer, 1000 ms second integration time per well. Recordings are provided below in Table 4.

IRE1a [2] = target: T1, IRE1a; experiment: In vitro FRET assay (IRE1a cleavage of XBP1 RNA probe); type: biochemical; parameters: purchased SignalChem; details: 2 nM IRE1a
Protocol: In vitro FRET assay was performed to evaluate the ability of select compounds to inhibit IRE1, the results of which are summarized in Table 3. To perform the in vitro FRET assay, 1× complete assay buffer (CAB; […], 50 mM sodium citrate pH 7.15, 1 mM magnesium acetate, 0.02% tween 20) was used to dilute SignalChem IRE1a protein to a final concentration of 2 nM. Selected compounds were serially diluted with DMSO in a non-binding black 384-well plate for a total of 15 ul in each well, 2 ul of the serially diluted compound or DMSO control were then added to new wells containing 98 ul of 1×CAB, for a total volume of 100 ul, 10 ul of which were then transferred to wells of a new plate, 5 ul of the diluted IRE1a was then added to each well, 5 ul of a […] XBP1 RNA probe was then added to each well. Fluorescence was then read over 30 minutes in kinetic mode (485/515 nm).
Two RNA probes were used, XBP1 wildtype (SEQ ID NO: 2) which is able to be spliced by active IRE1a or XBP1 mutant (SEQ ID NO: 3) which is unable to be spliced. Each probe contained a 5′ 6-FAM modification and a 3′ IOWA Black FQ modification. […]

[3] = Metabolic assays of N,N-dimethyl compounds; type: in vitro ADME; details: data not shown
IRE1a/XBP1 pathway = experiment: Inhibition of endogenous XBP1 splicing in 293T cells with tunicamycin; type: cell-based, human
Protocol: Gene expression was evaluated by quantitative PCR for XBP1s and total XBP1 transcripts using the 2^(−ΔCT) method for calculating normalized gene expression. Gene expression levels were normalized to ACTB transcripts. XBP1 splicing was calculated as actin-normalized XBP1s expression divided by actin-normalized total XBP1 expression.

[4] = tested on: IRE1a-dependent XBP1 splicing; experiment: Inhibition of IRE1a-dependent XBP1 splicing in ovarian cancer cells in vivo; parameters: species or system mouse; details: mice with metastatic ovarian cancer, single oral dose 45 mg/kg, 24 hours
Protocol: Mice (n=3) with established metastatic ovarian cancer were orally gavaged with 45 mg/kg vehicle control or inhibitor dissolved in H2O. The inhibitor was Compound C. Compound C is 2-chloro-N-(5-(2-(((1r,4r)-4-(dimethylamino)cyclohexyl)amino)-8-ethylquinazolin-6-yl)-6-methylpyridin-2-yl)benzenesulfonamide, Compound 91, described herein. After 24 hours, mice were euthanized, ascites-resident cells were extracted and tumor cells, dendritic cells (DCs), and CD4+ T cells were isolated by FACS. The samples were used for subsequent RT-qPCR analysis of beta-actin, XBP1s and total XBP1. Gene expression was evaluated by quantitative PCR for XBP1s and total XBP1 transcripts using the 2^(−ΔCT) method for calculating normalized gene expression. Gene expression levels were normalized to Actb transcripts. XBP1 splicing is calculated as XBP1s expression divided by total XBP1 expression. A single oral dose of Compound C suppressed IRE1a-dependent XBP1 splicing in tumor cells and relevant immune cells in vivo over 24 hours, FIG. 7.
Mice (n=3) with established metastatic ovarian cancer were orally gavaged with 45 mg/kg vehicle control or inhibitor dissolved in H2O. […] Gene expression was evaluated by quantitative PCR for XBP1s and total XBP1 transcripts using the 2^(−ΔCT) method for calculating normalized gene expression. […] XBP1 splicing is calculated as XBP1s expression divided by total XBP1 expression. […]

[5] = tested on: IRE1a-mediated XBP1 splicing; experiment: Target engagement in pancreas and salivary gland (XBP1 splicing RT-qPCR); type: in vivo, mouse; details: mice, 30 mg/kg oral gavage, 6 hours, compared to control and Compound B
Protocol: Mice (n=3 per group) were orally gavaged with 30 mg/kg vehicle control or IRE1 inhibitors dissolved in H2O. After 6 hours, mice were euthanized and pancreas and salivary gland tissues were isolated, snap frozen on dry ice, and used for subsequent RT-qPCR analysis of beta-actin, XBP1s and total XBP1. Gene expression was evaluated by quantitative PCR for XBP1s and total XBP1 transcripts using the 2^(−ΔCT) method for calculating normalized gene expression. Gene expression levels were normalized to Actb transcripts. XBP1 splicing is calculated as XBP1s expression divided by total XBP1 expression.

in vivo = details: mouse
[6] = Bioavailability assay (pharmacokinetic study); details: mouse; IV 1 mg/kg, PO 10 or 30 mg/kg
MDA-MB-231 tumors = experiment: MDA-MB-231 human triple negative breast carcinoma xenograft in athymic nude mice; type: in vivo, mouse; details: MDA-MB-231 xenograft mice, 24 hours after first dose and at endpoint/Day 29
Protocol: Tumor Cell Culture and Implantation: MDA-MB-231 cells were grown to mid-log phase in RPMI 1640 medium containing 10% fetal bovine serum, 2 mM glutamine, 100 units/mL sodium penicillin G, 25 μg/mL gentamicin, and 100 μg/mL streptomycin sulfate. The tumor cells were cultured in tissue culture flasks in a humidified incubator at 37° C., in an atmosphere of 5% CO2 and 95% air. The cells were harvested during exponential growth and resuspended in cold phosphate buffered saline (PBS). Each test animal was injected subcutaneously in the right flank with 5×10^6 MDA-MB-231 cells in a 0.1 mL cell suspension. Tumor growth was monitored as the average tumor size approached the target range of 100 to 150 mm^3. Tumors were measured in two dimensions using calipers, and volume was calculated using the formula:
where w=width and l=length in mm of a MDA-MB-231 tumor. […]
Endpoint and Tumor Growth Inhibition (TGI) Analysis: Tumors were measured using calipers twice a week for the study duration. […] The study ended on Day 29 and data from this day was analyzed to determine the MTV (n), the median tumor volume for the number of animals, n, on the final day (Day 29) for each group. […] Percent tumor growth inhibition (% TGI) was defined as the difference between the MTV of the designated control group (Group 1) and the MTV of the drug-treated group, expressed as a percentage of the MTV of the control; group: […]

SMILES | pEC50 (IRE1a [1]) | pIC50 (IRE1a [2]) | other results
CCc1cc(-c2ccc(NS(=O)(=O)c3cccc(C)c3Cl)nc2C)cc2cnc(N[C@H]3CC[C@H](N(C)C)CC3)nc12 [160; Formic Acid Salt] | ≥ 8.30 | ≥ 8.30 | 
CCc1c(F)c(-c2ccc(NS(=O)(=O)c3ccccc3Cl)nc2C)cc2cnc(N[C@H]3CC[C@H](N(C)C)CC3)nc12 [161; Formic Acid Salt] | ≥ 8.30 | ≥ 8.30 | 
CCc1c(F)c(-c2cc(F)c(NS(=O)(=O)c3ccccc3Cl)nc2C)cc2cnc(N[C@H]3CC[C@H](N(C)C)CC3)nc12 [162; Formic Acid Salt] | ≥ 8.30 | ≥ 8.30 | 
CCc1c(F)c(-c2cc(F)c(NS(=O)(=O)c3ccccc3Cl)nc2OC)cc2cnc(N[C@H]3CC[C@H](N(C)C)CC3)nc12 [163; Formic Acid Salt] | ≥ 8.30 | ≥ 8.30 | 
CCc1cc(-c2ccc(NS(=O)(=O)c3ccccc3Cl)nc2C)cc2cnc(N[C@H]3CC[C@H](N(C)C)CC3)nc12 [Compound 91, 2-chloro-N-(5-(2-(((1r,4r)-4-(dimethylamino)cyclohexyl)amino)-8-ethylquinazolin-6-yl)-6-methylpyridin-2-yl)benzenesulfonamide] |  |  | metabolism of N,N-dimethyl compounds [3]: removal of the methyl groups; shift in potency between Compound A and Compound C (XBP1 splicing inhibition) (IRE1a/XBP1 pathway): approximately 3.6 ×
CCc1cc(-c2ccc(NS(=O)(=O)c3ccccc3Cl)nc2OC)cc2cnc(N[C@H]3CC[C@H](N(C)C)CC3)nc12 [Compound 99, 2-chloro-N-(5-(2-(((1r,4r)-4-(dimethylamino)cyclohexyl)amino)-8-ethylquinazolin-6-yl)-6-methoxypyridin-2-yl)benzenesulfonamide] |  |  | IRE1a-dependent XBP1 splicing in FACS-isolated ascites cells [4]: suppressed; IRE1a-mediated XBP1 splicing in pancreas and salivary gland [5]: potently suppressed; metabolism of N,N-dimethyl compounds [3]: removal of the methyl groups
CCc1cc(-c2ccc(NS(=O)(=O)c3ccccc3Cl)nc2OC)cc2cnc(N[C@H]3CC[C@H](N(C)C)CC3)nc12 [Compound 99] |  |  | bioavailability (in vivo): 70%
CCc1cc(-c2ccc(NS(=O)(=O)c3ccccc3Cl)nc2C)cc2cnc(N[C@H]3CC[C@H](N)CC3)nc12 [Compound A, N-(5-(2-(((1r,4r)-4-aminocyclohexyl)amino)-8-ethylquinazolin-6-yl)-6-methylpyridin-2-yl)-2-chlorobenzenesulfonamide] |  |  | oral bioavailability [6]: 4%
COc1cc2c(C)c(CC(=O)N3CCOCC3)c(=O)oc2c(C=O)c1O [MKC-8866] |  |  | exposure (plasma compound levels) (MDA-MB-231 tumors): significantly higher with multi-dosing
